Measured values reported in patent publication US9732094B2, “Arylquinazolines” (Merck Patent GmbH, priority 2013, dated 2017).
Read-outs that look alike come from different tables or passages of the source.

Legend:
DNA-PK = DNA-PK (Homo sapiens (Human), UniProt P78527); experiment: DNA-PK assay (biochemical), flashplate 33P-ATP kinase assay
Method in brief: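 Radiometric kinase reaction in streptavidin-coated flashplates, stopped with 200 mM EDTA, then 30 min room-temperature incubation and saline washes.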

[1] = molecular target: DNA-PK phosphorylation at serine 2056 (Homo sapiens (Human), UniProt P78527); experiment: DNA-PK phosphorylation at serine 2056 (cellular), bleomycin-treated HCT116 cells, ELISA; format: cell-based; details: read-out: IC50 pDNA-PK
Method in brief: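 After overnight seeding, HCT116 cells received compound with 10 μM bleomycin for 6 h; phospho-DNA-PK ELISA signals were scaled to total DNA-PKcs, DMSO serving as blank.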

Kv11.1 (hERG) = Kv11.1 (hERG) (Homo sapiens (Human), UniProt Q12809); experiment: Kv11.1 (hERG) ion channel activity (patch clamp assay), HEK293 cells transfected with hERG gene
Kv11.1 (hERG), sequence (Q12809 whole entry): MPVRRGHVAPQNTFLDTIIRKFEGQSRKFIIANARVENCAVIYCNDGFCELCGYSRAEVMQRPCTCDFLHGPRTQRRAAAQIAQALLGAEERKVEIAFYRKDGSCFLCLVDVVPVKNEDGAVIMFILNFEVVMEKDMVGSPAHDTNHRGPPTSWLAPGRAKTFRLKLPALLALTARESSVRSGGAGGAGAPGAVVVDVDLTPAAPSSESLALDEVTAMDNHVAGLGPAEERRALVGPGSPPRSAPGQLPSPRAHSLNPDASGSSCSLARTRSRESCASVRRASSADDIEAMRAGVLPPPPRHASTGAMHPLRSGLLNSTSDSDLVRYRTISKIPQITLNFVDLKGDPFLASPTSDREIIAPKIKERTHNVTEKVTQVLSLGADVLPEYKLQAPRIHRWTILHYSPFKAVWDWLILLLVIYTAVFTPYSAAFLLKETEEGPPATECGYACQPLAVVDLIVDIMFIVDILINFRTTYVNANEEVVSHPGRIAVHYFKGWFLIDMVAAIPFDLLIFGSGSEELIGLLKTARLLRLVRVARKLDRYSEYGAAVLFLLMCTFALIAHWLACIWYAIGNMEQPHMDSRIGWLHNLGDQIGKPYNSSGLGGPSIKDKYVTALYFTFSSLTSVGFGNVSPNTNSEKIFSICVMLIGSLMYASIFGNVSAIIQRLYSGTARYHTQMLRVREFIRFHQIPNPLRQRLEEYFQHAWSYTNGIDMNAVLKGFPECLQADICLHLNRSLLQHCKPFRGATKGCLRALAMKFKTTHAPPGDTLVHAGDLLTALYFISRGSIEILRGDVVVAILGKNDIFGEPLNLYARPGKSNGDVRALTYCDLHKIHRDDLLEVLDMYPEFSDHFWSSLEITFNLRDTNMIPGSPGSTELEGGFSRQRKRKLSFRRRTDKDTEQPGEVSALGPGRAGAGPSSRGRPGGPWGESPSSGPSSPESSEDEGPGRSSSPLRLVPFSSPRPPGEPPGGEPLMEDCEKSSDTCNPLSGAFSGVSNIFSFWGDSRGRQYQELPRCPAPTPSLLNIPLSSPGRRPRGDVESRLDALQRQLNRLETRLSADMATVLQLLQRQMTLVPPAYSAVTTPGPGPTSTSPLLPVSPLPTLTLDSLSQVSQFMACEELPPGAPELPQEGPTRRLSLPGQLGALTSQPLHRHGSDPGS

[2] = cellular DNA-PK phosphorylation at serine 2056, HCT116
[3] = Ki [Kv1.11 hERG], hERG patch clamp assay (cells without asterisk)
[4] = cellular, HCT116 cells, 10 μM bleomycin, six hours
[5] = read-out: Ki [Kv1.11 hERG], patch clamp, HEK293 transfected with hERG gene
[6] = read-out: Ki [Kv1.11 hERG], hERG patch clamp assay (cells without asterisk)

IC50 (DNA-PK; biochemical DNA-PK assay) [µM]	IC50 [1, 2] [µM]	IC50 (DNA-PK; enzymatic, 5 μM ATP) [µM]	IC50 [1, 4] [µM]	Structure (SMILES)	Ki (Kv11.1 (hERG); [3]) [µM]	Ki (Kv11.1 (hERG); [5]) [µM]	Ki (Kv11.1 (hERG); Ki [Kv1.11 hERG], patch clamp, HEK293 transfected with hERG gene) [µM]	Ki (Kv11.1 (hERG); [6]) [µM]
0.007 to 0.03	5 to 10			OC(c1cc(-c2ncnc3cc(N4CCOCC4)ccc23)ccc1Cl)c1nccn2ccnc12 (stereo not drawn) [Example 369, [2-Chloro-5-(7-morpholin-4-yl-quinazolin-4-yl)-phenyl]imidazo-[1,2-a]pyrazin-8-yl-methanol]	15 to 25			
		< 0.003	< 0.5	COc1cnc(Cl)c(C(O)c2ccc(F)c(-c3ncnc4cc(N5CCOCC5)ccc34)c2)n1 (stereo not drawn) [Example 26, (3-Chloro-6-methoxy-pyrazin-2-yl)-[4-fluoro-3-(7-morpholin-4-yl-quinazolin-4-yl)phenyl]-methanol]		> 25		
		0.003 to 0.007	< 0.5	COc1ncc(Cl)nc1C(O)c1ccc(F)c(-c2ncnc3cc(N4CCOCC4)ccc23)c1 (stereo not drawn) [Example 25, (6-Chloro-3-methoxy-pyrazin-2-yl)-[4-fluoro-3-(7-morpholin-4-yl-quinazolin-4-yl)phenyl]-methanol]		< 10		
		< 0.003	< 0.5	COc1nccnc1C(O)c1ccc(F)c(-c2ncnc3cc(N4CCOCC4)ccc23)c1 (stereo not drawn) [Example 15, [4-Fluoro-3-(7-morpholin-4-yl-quinazolin-4-yl)phenyl]-(3-methoxy-pyrazin-2-yl)methanol]			15 to 25	
< 0.003	< 0.5			OC(c1ccc(F)c(-c2ncnc3cc(N4CCOCC4)ccc23)c1)c1ncccc1Cl (stereo not drawn) [Example 465, (3-Chloro-pyridin-2-yl)-[4-fluoro-3-(7-morpholin-4-yl-quinazolin-4-yl)-phenyl]methanol]	15 to 25			
		0.007 to 0.03	0.5 to 5	O=c1ccc(C(O)c2cc(-c3ncnc4cc(N5CCOCC5)ccc34)c(F)cc2Cl)nn1C1CC1 (stereo not drawn) [Example 95, 6-{[2-Chloro-4-fluoro-5-(7-morpholin-4-yl-quinazolin-4-yl)phenyl]-hydroxymethyl}-2-cyclopropyl-2H-pyridazin-3-one]		> 25		
0.007 to 0.03	5 to 10			COc1nccnc1C(C(N)=O)c1ccc(F)c(-c2ncnc3cc(N4CCOCC4)ccc23)c1 (stereo not drawn) [Example 305, 2-[4-Fluoro-3-(7-morpholin-4-yl-quinazolin-4-yl)-phenyl]-2-(3-methoxy-pyrazin-2-yl)acetamide]				> 25
		> 0.03	10 to 30	COc1cnc(C(O)c2ccc(OC)c(-c3ncnc4cc(N5CCOCC5)ccc34)c2)cn1 (stereo not drawn) [Example 61, [4-methoxy-3-(7-morpholin-4-yl-quinazolin-4-yl)phenyl]-(5-methoxypyrazin-2-yl)methanol]		> 25		
		0.003 to 0.007	0.5 to 5	O=c1ccc(C(O)c2cc(-c3ncnc4cc(N5CCOCC5)ccc34)c(F)cc2Cl)nn1CCO (stereo not drawn) [Example 99, 6-{[2-Chloro-4-fluoro-5-(7-morpholin-4-yl-quinazolin-4-yl)phenyl]-hydroxymethyl}-2-(2-hydroxy-ethyl)-2H-pyridazin-3-one]		> 25		
0.003 to 0.007	0.5 to 5			CCn1c(C(O)c2ccc(F)c(-c3ncnc4cc(N5CCOCC5)ccc34)c2)cccc1=O (stereo not drawn) [Example 398, 1-Ethyl-6-{[4-f1uoro-3-(7-morpholin-4-yl-quinazolin-4-yl)-phenyl]hydroxy-methyl}-1H-pyridin-2-one]				> 25

Structure (SMILES)	IC50 (DNA-PK; biochemical DNA-PK assay) [µM]	IC50 [1, 2] [µM]	IC50 (DNA-PK; enzymatic, 5 μM ATP) [µM]	IC50 [1, 4] [µM]	Ki (Kv11.1 (hERG); [3]) [µM]	Ki (Kv11.1 (hERG); [5]) [µM]	Ki (Kv11.1 (hERG); Ki [Kv1.11 hERG], patch clamp, HEK293 transfected with hERG gene) [µM]	Ki (Kv11.1 (hERG); [6]) [µM]
[2H]C1([2H])OC([2H])([2H])C([2H])([2H])N(c2ccc3c(-c4cc(C(O)c5nccnc5OC)c(Cl)cc4F)ncnc3c2)C1([2H])[2H] (stereo not drawn) [Example 242, [2-Chloro-4-fluoro-5-[7-(2,2,3,3,5,5,6,6-octadeuteriomorpholin-4-yl)quinazolin-4-yl]phenyl]-(3-methoxypyrazin-2-yl)methanol]	< 0.003	< 0.5			15 to 25			
[2H]C1([2H])OC([2H])([2H])C([2H])([2H])N(c2ccc3c(-c4cc(C(O)c5nccnc5C)ccc4F)ncnc3c2)C1([2H])[2H] (stereo not drawn) [Example 238, [4-Fluoro-3-[7-(2,2,3,3,5,5,6,6-octadeuteriomorpholin-4-yl)quinazolin-4-yl]phenyl]-(3-methyl-pyrazin-2-yl)-methanol]	< 0.003	< 0.5			15 to 25			
